From ChEMBL document CHEMBL5360518, “Discovery of a novel photoswitchable PI3K inhibitor toward optically-controlled anticancer activity” (Bioorg Med Chem, 2022)
Activity calls are given as the source filed them. No cut-off for these calls is given here.

Tests used:
[1] = system: HGC-27; test: Inhibition of cell migration in human HGC-27 cells harboring PI3KCA mutation and overactive PI3K pathway assessed as reduction in migratory ability at 0.08 to 0.4 uM incubated for 16 hrs in presence of irradiation at 365 nm UV light for 2 mins once every 8 hrs by crystal violet staining based assay; assay type: functional; details: dose 0.08-0.4 µM
[2] = biological target: RAC-alpha serine/threonine-protein kinase (Homo sapiens) (UniProt P31749); test: Inhibition of AKT phosphorylation at S473 residue in human HGC-27 cells harboring PI3KCA mutation and overactive PI3K pathway by Western blot analysis; assay type: cell-based; details: dose 0.08-0.4 µM
[3] = system: HGC-27; test: (§1) Induction of apoptosis in human HGC-27 cells harboring PI3KCA mutation and overactive PI3K pathway assessed as late apoptotic cells at 0.4 uM incubated for 48 hrs under irradiation with 365 nm UV light 2 mins once for every 8 hrs by Annexin V-FITC/PI staining based flow cytometry analysis (reference value: 3.39%); assay type: functional
[4] = biological target: T1, Phosphatidylinositol 4,5-bisphosphate 3-kinase catalytic subunit alpha isoform (Homo sapiens, UniProt P42336); test: Inhibition of PI3Kalpha (unknown origin) using PIP2 as substrate incubated for 1 hr in presence of ATP under irradiation with 365 nm UV light by ADP-Glo luminescent assay
[5] = system: HGC-27; test: (§2) Antitumor activity against CM-Dil labeled human HGC-27 cells implanted in yolk sac of Albino wild type zebrafish embryos assessed as inhibition of tumor growth by measuring reduction in fluorescence density at 0.391 to 0.781 ng per fish incubated for 48 hrs in presence of irradiation with 365 nm UV light by fluorescence microscopic analysis; assay type: functional, cell-based; details: dose 0.391-0.781 ng
[6] = system: HGC-27; test: as §1, with “0.08” for “0.4”; assay type: functional
[7] = biological target: RAC-alpha serine/threonine-protein kinase (Homo sapiens) (UniProt P31749); test: Inhibition of AKT phosphorylation at S473 residue in human HGC-27 cells harboring PI3KCA mutation and overactive PI3K pathway at 0.08 to 0.4 uM compound irradiated for 5 mins at 520 nm by Western blot analysis; assay type: cell-based; details: dose 0.08-0.4 µM
[8] = biological target: T2, Ribosomal protein S6 kinase (Homo sapiens) (UniProt P51812+Q9UBS0+O75676+Q15349+O75582+P23443+Q9UK32+Q15418); test: Inhibition of S6 phosphorylation in human HGC-27 cells harboring PI3KCA mutation and overactive PI3K pathway by Western blot analysis; assay type: cell-based; details: dose 0.08-0.4 µM
[9] = system: HGC-27; test: as §1, with “early” for “late”, “0.08” for “0.4”, “2.26%)” for “3.39%)”; assay type: functional
[10] = system: HGC-27; test: as §1, with “early” for “late”, “2.26%)” for “3.39%)”; assay type: functional
[11] = system: NCI-H460; test: as §1, with “NCI-H460” for “HGC-27”, “2.27%)” for “3.39%)”; assay type: functional
[12] = biological target: RAC-alpha serine/threonine-protein kinase (Homo sapiens) (UniProt P31749); test: Inhibition of AKT phosphorylation at T308 residue in human HGC-27 cells harboring PI3KCA mutation and overactive PI3K pathway at 0.08 to 0.4 uM compound irradiated for 5 mins at 520 nm by Western blot analysis; assay type: cell-based; details: dose 0.08-0.4 µM
[13] = system: NCI-H460; test: as §1, with “NCI-H460” for “HGC-27”, “0.08” for “0.4”, “2.27%)” for “3.39%)”; assay type: functional
[14] = system: HGC-27; test: Inhibition of colony formation in human HGC-27 cells harboring PI3KCA mutation and overactive PI3K pathway assessed as reduction in number of colonies incubated for 10 days in presence of irradiation at 365 nm UV light for 2 mins once every 8 hrs by crystal violet staining based assay; assay type: functional, cell-based; details: dose 0.08-0.4 µM, time 10.0 day
[15] = system: NCI-H460; test: as §1, with “NCI-H460” for “HGC-27”, “early” for “late”, “2.6%)” for “3.39%)”; assay type: functional
[16] = system: NCI-H460; test: as §1, with “NCI-H460” for “HGC-27”, “early” for “late”, “0.08” for “0.4”, “2.6%)” for “3.39%)”; assay type: functional
[17] = biological target: RAC-alpha serine/threonine-protein kinase (Homo sapiens) (UniProt P31749); test: Inhibition of AKT phosphorylation at T308 residue in human HGC-27 cells harboring PI3KCA mutation and overactive PI3K pathway by Western blot analysis; assay type: cell-based; details: dose 0.08-0.4 µM
[18] = biological target: T2, Ribosomal protein S6 kinase (Homo sapiens); test: Inhibition of S6 phosphorylation in human HGC-27 cells harboring PI3KCA mutation and overactive PI3K pathway at 0.08 to 0.4 uM compound irradiated for 5 mins at 520 nm by Western blot analysis; assay type: cell-based; details: dose 0.08-0.4 µM
[19] = system: NCI-H460; test: Induction of apoptosis in human NCI-H460 cells harboring PI3KCA mutation and overactive PI3K pathway assessed as early apoptotic cells at 0.08 uM incubated for 48 hrs under dark condition by Annexin V-FITC/PI staining based flow cytometry analysis (reference value: 2.6%); assay type: functional
[20] = system: NCI-H460; test: Induction of apoptosis in human NCI-H460 cells harboring PI3KCA mutation and overactive PI3K pathway assessed as late apoptotic cells at 0.08 uM incubated for 48 hrs under dark condition by Annexin V-FITC/PI staining based flow cytometry analysis (reference value: 2.27%); assay type: functional
[21] = system: HGC-27; test: Induction of apoptosis in human HGC-27 cells harboring PI3KCA mutation and overactive PI3K pathway assessed as late apoptotic cells at 0.08 uM incubated for 48 hrs under dark condition by Annexin V-FITC/PI staining based flow cytometry analysis (reference value: 3.39%); assay type: functional
[22] = system: HGC-27; test: Inhibition of colony formation in human HGC-27 cells harboring PI3KCA mutation and overactive PI3K pathway assessed as reduction in number of colonies incubated for 10 days under dark condition by crystal violet staining based assay; assay type: functional, cell-based; details: dose 0.08-0.4 µM, time 10.0 day
[23] = biological target: T2, Ribosomal protein S6 kinase (Homo sapiens); test: Inhibition of S6 phosphorylation in human HGC-27 cells harboring PI3KCA mutation and overactive PI3K pathway at 0.08 to 0.4 uM compound irradiated for 2 mins at 365 nm by Western blot analysis; assay type: cell-based; details: dose 0.08-0.4 µM
[24] = system: NCI-H460; test: Induction of apoptosis in human NCI-H460 cells harboring PI3KCA mutation and overactive PI3K pathway assessed as late apoptotic cells at 0.4 uM incubated for 48 hrs under dark condition by Annexin V-FITC/PI staining based flow cytometry analysis (reference value: 2.27%); assay type: functional
[25] = system: HGC-27; test: Induction of apoptosis in human HGC-27 cells harboring PI3KCA mutation and overactive PI3K pathway assessed as late apoptotic cells at 0.4 uM incubated for 48 hrs under dark condition by Annexin V-FITC/PI staining based flow cytometry analysis (reference value: 3.39%); assay type: functional
[26] = biological target: T1, Phosphatidylinositol 4,5-bisphosphate 3-kinase catalytic subunit alpha isoform; test: Inhibition of PI3Kalpha (unknown origin) using PIP2 as substrate incubated for 1 hr in presence of ATP under dark condition by ADP-Glo luminescent assay
[27] = system: HGC-27; test: Inhibition of cell migration in human HGC-27 cells harboring PI3KCA mutation and overactive PI3K pathway assessed as reduction in migratory ability at 0.08 to 0.4 uM incubated for 16 hrs under dark condition by crystal violet staining based assay; assay type: functional; details: dose 0.08-0.4 µM
[28] = system: HGC-27; test: as §2, with “dark condition” for “presence of irradiation with 365 nm UV light”; assay type: functional; details: dose 0.391-0.781 ng
[29] = system: HGC-27; test: Induction of apoptosis in human HGC-27 cells harboring PI3KCA mutation and overactive PI3K pathway assessed as early apoptotic cells at 0.08 uM incubated for 48 hrs under dark condition by Annexin V-FITC/PI staining based flow cytometry analysis (reference value: 2.26%); assay type: functional
[30] = system: NCI-H460; test: Induction of apoptosis in human NCI-H460 cells harboring PI3KCA mutation and overactive PI3K pathway assessed as early apoptotic cells at 0.4 uM incubated for 48 hrs under dark condition by Annexin V-FITC/PI staining based flow cytometry analysis (reference value: 2.6%); assay type: functional
[31] = biological target: RAC-alpha serine/threonine-protein kinase (Homo sapiens) (UniProt P31749); test: Inhibition of AKT phosphorylation at T308 residue in human HGC-27 cells harboring PI3KCA mutation and overactive PI3K pathway at 0.08 to 0.4 uM compound irradiated for 2 mins at 365 nm by Western blot analysis; assay type: cell-based; details: dose 0.08-0.4 µM
[32] = biological target: RAC-alpha serine/threonine-protein kinase (Homo sapiens) (UniProt P31749); test: Inhibition of AKT phosphorylation at S473 residue in human HGC-27 cells harboring PI3KCA mutation and overactive PI3K pathway at 0.08 to 0.4 uM compound irradiated for 2 mins at 365 nm by Western blot analysis; assay type: cell-based; details: dose 0.08-0.4 µM
[33] = system: HGC-27; test: Induction of apoptosis in human HGC-27 cells harboring PI3KCA mutation and overactive PI3K pathway assessed as early apoptotic cells at 0.4 uM incubated for 48 hrs under dark condition by Annexin V-FITC/PI staining based flow cytometry analysis (reference value: 2.26%); assay type: functional

RAC-alpha serine/threonine-protein kinase (Homo sapiens), sequence (P31749 whole entry): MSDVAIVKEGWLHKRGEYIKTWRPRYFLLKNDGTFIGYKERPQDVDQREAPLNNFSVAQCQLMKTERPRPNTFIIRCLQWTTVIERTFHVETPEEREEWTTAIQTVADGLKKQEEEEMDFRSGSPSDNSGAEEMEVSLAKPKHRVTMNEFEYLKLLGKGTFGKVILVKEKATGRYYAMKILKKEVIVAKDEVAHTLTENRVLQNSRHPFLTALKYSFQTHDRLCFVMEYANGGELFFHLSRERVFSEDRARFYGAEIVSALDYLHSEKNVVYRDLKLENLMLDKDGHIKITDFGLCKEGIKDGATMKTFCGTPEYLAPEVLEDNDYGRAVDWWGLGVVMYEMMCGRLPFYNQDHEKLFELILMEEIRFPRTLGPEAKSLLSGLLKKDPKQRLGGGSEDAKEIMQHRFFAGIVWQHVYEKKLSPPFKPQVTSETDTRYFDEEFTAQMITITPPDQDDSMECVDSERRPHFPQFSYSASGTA
T1 sequence (P42336 whole entry, canonical isoform): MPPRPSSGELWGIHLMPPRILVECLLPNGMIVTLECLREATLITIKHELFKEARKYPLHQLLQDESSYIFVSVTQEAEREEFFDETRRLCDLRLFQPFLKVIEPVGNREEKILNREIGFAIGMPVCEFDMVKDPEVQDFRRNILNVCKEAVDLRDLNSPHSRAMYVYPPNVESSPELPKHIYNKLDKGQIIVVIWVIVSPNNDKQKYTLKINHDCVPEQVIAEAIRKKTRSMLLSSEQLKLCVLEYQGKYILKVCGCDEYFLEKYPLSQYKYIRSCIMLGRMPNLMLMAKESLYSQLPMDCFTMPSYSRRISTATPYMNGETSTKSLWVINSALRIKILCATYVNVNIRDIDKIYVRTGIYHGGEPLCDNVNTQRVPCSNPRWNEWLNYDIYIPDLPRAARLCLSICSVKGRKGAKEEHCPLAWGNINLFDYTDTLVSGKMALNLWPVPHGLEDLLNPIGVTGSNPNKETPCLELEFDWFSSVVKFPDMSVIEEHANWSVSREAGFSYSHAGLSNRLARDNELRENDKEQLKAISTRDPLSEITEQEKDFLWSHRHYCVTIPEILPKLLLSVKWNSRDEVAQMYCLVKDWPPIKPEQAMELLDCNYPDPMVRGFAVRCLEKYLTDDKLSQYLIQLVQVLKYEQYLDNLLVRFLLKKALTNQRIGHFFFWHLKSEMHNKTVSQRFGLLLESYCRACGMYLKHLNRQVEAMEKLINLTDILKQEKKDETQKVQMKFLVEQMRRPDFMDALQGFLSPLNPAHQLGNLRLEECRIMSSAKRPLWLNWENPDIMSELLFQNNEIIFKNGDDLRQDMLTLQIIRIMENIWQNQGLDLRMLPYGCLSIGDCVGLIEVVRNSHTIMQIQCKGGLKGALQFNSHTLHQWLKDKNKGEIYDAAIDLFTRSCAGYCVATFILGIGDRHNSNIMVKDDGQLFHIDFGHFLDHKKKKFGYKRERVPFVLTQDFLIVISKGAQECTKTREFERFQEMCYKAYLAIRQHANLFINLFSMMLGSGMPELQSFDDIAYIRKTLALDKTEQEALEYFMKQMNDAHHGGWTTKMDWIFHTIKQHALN

COc1ncc(-c2cc(Oc3ccc(/N=N\c4ccc(Oc5cc(-c6cnc(OC)c(NS(=O)(=O)c7ccc(F)cc7F)c6)cc6c(C)ncnc56)cc4)cc3)c3ncnc(C)c3c2)cc1NS(=O)(=O)c1ccc(F)cc1F
inhibition [1]: Active | inhibition [2]: Dose-Dependent Effect | Activity [3]: 14.28% | IC50 [4]: 0.00524 µM | Activity [5]: Active | Activity [6]: 3.6% | inhibition [7]: Active | inhibition [8]: Dose-Dependent Effect | Activity [9]: 33.67% | Activity [10]: 66.74% | Activity [11]: 26.4% | inhibition [12]: Active | Activity [13]: 18.8% | inhibition [14]: Dose-Dependent Effect | Activity [15]: 6.05% | Activity [16]: 5.44% | inhibition [17]: Dose-Dependent Effect | inhibition [18]: Active

COc1ncc(-c2cc(Oc3ccc(/N=N/c4ccc(Oc5cc(-c6cnc(OC)c(NS(=O)(=O)c7ccc(F)cc7F)c6)cc6c(C)ncnc56)cc4)cc3)c3ncnc(C)c3c2)cc1NS(=O)(=O)c1ccc(F)cc1F
Activity [19]: 2.69% | inhibition [2]: Dose-Dependent Effect | Activity [20]: 3.17% | Activity [21]: 5.11% | inhibition [22]: Dose-Dependent Effect | inhibition [8]: Dose-Dependent Effect | inhibition [23]: Active | Activity [24]: 4.84% | Activity [25]: 15.95% | IC50 [26]: 0.0177 µM | inhibition [27]: Active | Activity [28]: Active | Activity [29]: 7.28% | Activity [30]: 2.36% | inhibition [17]: Dose-Dependent Effect | inhibition [31]: Active | inhibition [32]: Active | Activity [33]: 14.86%
